In patent US20080260770A1, “Use of Tellurium Compounds as Adjuvants” (BIOMAS LTD., priority 2004, published 2008):
Strand notation (5' to 3'): a small letter for the sugar, then the base; units joined by * are phosphorothioate-linked, units joined directly phosphodiester-linked; [ ] holds rarer units or linkages, { } end groups; capitals alone tell only the bases. d = 2'-deoxy (DNA)

Columns and labels:
[1] = system: freshly isolated peripheral blood human monocytes; test: IL-12 p40 production by human monocytes (ELISA); type: cell-based; details: adherent PBMCs from a healthy donor, 0.5-2 μg/ml PBS, 24 hours incubation, FIG. 1
Method: Adherent Peripheral Blood Mononuclear Cells (PBMCs) from a tuberculin-negative healthy donor were incubated with AS101 or AS103 (0.5-2 μg/ml PBS) or E. coli lipopolysaccharide (LPS) (1 ng/ml PBS; Sigma) for 24 hours. Supernatants were collected after 28 hours for analysis of IL-12 production. Cell supernatants were determined using commercially available Enzyme-Linked Immunosorbent Assay (ELISA) kits (R&D Systems). Supernatants were tested for IL-12p40 by ELISA kit (Endogene).

rats = details: intravenous and intramuscular administration; cited from earlier work
[2] = system: Murine bone marrow-derived dendritic cells; test: IL-12 p40 production by murine bone marrow-derived dendritic cells (ELISA); type: cell-based, mice; details: DC 10^6 cells/ml, 0.5-10 μg/ml PBS, supernatants after 24 hours, FIG. 2
Method: Murine bone marrow-derived dendritic cells (DC) were prepared by culturing bone marrow cells from the femur and tibia of mice in RPMI medium supplemented with 10% supernatant from a granulocyte-monocyte colony-stimulating factor-secreting cell line.
On day 7 of culture, cells were collected, washed, and resuspended in RPMI medium. DC (10^6 cells/ml) were cultured with AS101 or AS103 (0.5-10 μg/ml PBS), or with CpG. Supernatants were collected after 24 hours for analysis of IL-12 p40 production. Cell supernatants were determined using commercially available ELISA kits (R&D Systems).

[3] = system: KLH-specific IgG1 and IgG2a; test: Serum antibody responses to KLH in immunized mice (ELISA titers); type: in vivo
Method: Serum was obtained from mice immunized with depyrogenated keyhole limpet hemocyanin (KLH) (5 μg; Calbiochem, La Jolla, Calif.); with KLH plusphosphorothioate-stabilized oligodeoxynucleotide-containing CpG motifs (CpG-ODN) (5′-GCTAGACGTTAGCGT-3′), synthesized by Sigma-Genosys Ltd., Cambridge, United Kingdom; with KLH, plus CpG, plus AS101 (10 μg/ml PBS); or with Dulbecco's PBS alone (Sigma, Poole, United Kingdom), each in a final volume of 50 μl PBS.
On day 7 after immunization, mice were sacrificed by cervical dislocation, and serum and popliteal lymph nodes were collected. Titers of KLH-specific IgG1 and IgG2a in the serum of the immunized mice were determined by ELISA, and analysed for the presence of antibody subclasses IgG1 and IgG2a.

Compound | IL-12 p40 production [1] | LD50 values relative to the immunologically effective dose (rats) | IL-12 p40 production [2] | KLH-specific IgG1 response to KLH plus CpG on addition of the compound ([3]; 10 μg/ml PBS added to KLH plus CpG, day 7 after immunization, FIG. 3a) | production of KLH-specific IgG2a in response to KLH plus CpG on addition of the compound ([3]; 10 μg/ml PBS added to KLH plus CpG, day 7 after immunization, FIG. 3b) | KLH-specific antibody titer (IgG1 and IgG2a) on use together with KLH ([3]; KLH 5 μg plus CpG versus KLH alone, day 7, FIGS. 3a and 3b)
Cl[Te]1(Cl)OCCO1 [AS 103] | very low response | – | – | – | – | –
Cl[TeH]1(Cl)(Cl)OCCO1 [AS101, ammonium trichloro(dioxyethylene-O,O′)tellurate] | potent inducer | 500-1000 folds | potent inducer | no further increase | significantly increased | –
CpG: phosphorothioate-stabilized oligodeoxynucleotide-containing CpG motifs (CpG-ODN) (5′-GCTAGACGTTAGCGT-3′), synthesized by Sigma-Genosys (DNA dG*dC*dT*dA*dG*dA*dC*dG*dT*dT*dA*dG*dC*dG*dT) [reference compound] | – | – | – | – | – | increased
